Data from PMC9481151, “Discovery of new symmetrical and asymmetrical nitrile-containing 1,4-dihydropyridine derivatives as dual kinases and P-glycoprotein inhibitors: synthesis, in vitro assays, and in silico studies” (Journal of Enzyme Inhibition and Medicinal Chemistry, 2022).

Columns and labels:
HT29 = assay: NCI single dose (10 µM) SRB screen; assay type: cell-based, human; details: colon cancer, 48 h
OVCAR-5 = assay: NCI single dose (10 µM) SRB screen; assay type: cell-based, human; details: ovarian cancer, 48 h
HCT-116 = assay: NCI single dose (10 µM) SRB screen; assay type: cell-based, human; details: colon cancer, 48 h
SF-295 = assay: NCI single dose (10 µM) SRB screen; assay type: cell-based, human; details: CNS cancer, 48 h
SF-268 = assay: NCI single dose (10 µM) SRB screen; assay type: cell-based, human; details: CNS cancer, 48 h
MALME-3M = assay: NCI single dose (10 µM) SRB screen; assay type: cell-based, human; details: melanoma, 48 h
SN12C = assay: NCI single dose (10 µM) SRB screen; assay type: cell-based, human; details: renal cancer, 48 h
PC-3 = assay: NCI single dose (10 µM) SRB screen; assay type: cell-based, human; details: prostate cancer, 48 h
Pseudomonas aeruginosa = assay: Agar well diffusion method
CCRF-CEM = assay: NCI single dose (10 µM) SRB screen; assay type: cell-based, human; details: leukaemia, 48 h
SNB-19 = assay: NCI single dose (10 µM) SRB screen; assay type: cell-based, human; details: CNS cancer, 48 h
NCI-H522 = assay: NCI single dose (10 µM) SRB screen; assay type: cell-based, human; details: non-small cell lung cancer, 48 h
SR = assay: NCI single dose (10 µM) SRB screen; assay type: cell-based, human; details: leukaemia, 48 h
OVCAR-3 = assay: NCI single dose (10 µM) SRB screen; assay type: cell-based, human; details: ovarian cancer, 48 h
SK-MEL-2 = assay: NCI single dose (10 µM) SRB screen; assay type: cell-based, human; details: melanoma, 48 h
EKVX = assay: NCI single dose (10 µM) SRB screen; assay type: cell-based, human; details: non-small cell lung cancer, 48 h
HS578T = assay: NCI single dose (10 µM) SRB screen; assay type: cell-based, human; details: breast cancer, 48 h
COLO 205 = assay: NCI single dose (10 µM) SRB screen; assay type: cell-based, human; details: colon cancer, 48 h
KM12 = assay: NCI single dose (10 µM) SRB screen; assay type: cell-based, human; details: colon cancer, 48 h
NCI-H460 = assay: NCI single dose (10 µM) SRB screen; assay type: cell-based, human; details: non-small cell lung cancer, 48 h
HCC-2998 = assay: NCI single dose (10 µM) SRB screen; assay type: cell-based, human; details: colon cancer, 48 h
MDA-MB-231 = assay: NCI single dose (10 µM) SRB screen; assay type: cell-based, human; details: breast cancer, 48 h
M14 = assay: NCI single dose (10 µM) SRB screen; assay type: cell-based, human; details: melanoma, 48 h
Escherichia coli = assay: Agar well diffusion method
SK-OV-3 = assay: NCI single dose (10 µM) SRB screen; assay type: cell-based, human; details: ovarian cancer, 48 h
Staphylococcus aureus = assay: Agar well diffusion method
NCI-H23 = assay: NCI single dose (10 µM) SRB screen; assay type: cell-based, human; details: non-small cell lung cancer, 48 h
SNB-75 = assay: NCI single dose (10 µM) SRB screen; assay type: cell-based, human; details: CNS cancer, 48 h
NCI/ADR-RES = assay: NCI single dose (10 µM) SRB screen; assay type: cell-based, human; details: ovarian cancer, 48 h
LOX IMVI = assay: NCI single dose (10 µM) SRB screen; assay type: cell-based, human; details: melanoma, 48 h
SW-620 = assay: NCI single dose (10 µM) SRB screen; assay type: cell-based, human; details: colon cancer, 48 h
MOLT-4 = assay: NCI single dose (10 µM) SRB screen; assay type: cell-based, human; details: leukaemia, 48 h
HCT-15 = assay: NCI single dose (10 µM) SRB screen; assay type: cell-based, human; details: colon cancer, 48 h
K-562 = assay: NCI single dose (10 µM) SRB screen; assay type: cell-based, human; details: leukaemia, 48 h
NCI-H226 = assay: NCI single dose (10 µM) SRB screen; assay type: cell-based, human; details: non-small cell lung cancer, 48 h
SK-MEL-5 = assay: NCI single dose (10 µM) SRB screen; assay type: cell-based, human; details: melanoma, 48 h
786-0 = assay: NCI single dose (10 µM) SRB screen; assay type: cell-based, human; details: renal cancer, 48 h
IGROV1 = assay: NCI single dose (10 µM) SRB screen; assay type: cell-based, human; details: ovarian cancer, 48 h
DU-145 = assay: NCI single dose (10 µM) SRB screen; assay type: cell-based, human; details: prostate cancer, 48 h
U251 = assay: NCI single dose (10 µM) SRB screen; assay type: cell-based, human; details: CNS cancer, 48 h
NCI 60 cancer cell lines = assay: NCI single dose (10 µM) SRB screen, mean over panel; assay type: cell-based, human; details: mean over 60 cell lines, 48 h
Candida albicans = assay: Agar well diffusion method
SK-MEL-28 = assay: NCI single dose (10 µM) SRB screen; assay type: cell-based, human; details: melanoma, 48 h
Bacillus subtilis = assay: Agar well diffusion method; details: relative to ciprofloxacin
TK-10 = assay: NCI single dose (10 µM) SRB screen; assay type: cell-based, human; details: renal cancer, 48 h
MDA-MB-468 = assay: NCI single dose (10 µM) SRB screen; assay type: cell-based, human; details: breast cancer, 48 h
MDA-MB-435 = assay: NCI single dose (10 µM) SRB screen; assay type: cell-based, human; details: melanoma, 48 h
RPMI-8226 = assay: NCI single dose (10 µM) SRB screen; assay type: cell-based, human; details: leukaemia, 48 h
HOP-62 = assay: NCI single dose (10 µM) SRB screen; assay type: cell-based, human; details: non-small cell lung cancer, 48 h
HOP-92 = assay: NCI single dose (10 µM) SRB screen; assay type: cell-based, human; details: non-small cell lung cancer, 48 h
T-47D = assay: NCI single dose (10 µM) SRB screen; assay type: cell-based, human; details: breast cancer, 48 h

## COC(=O)C1=C(C)NC(C)=C(C(=O)OCC(C)C)C1c1cccc(C#N)c1 (racemic) [Compound 2b, (±)-3-Isobutyl 5-methyl 4-(3-cyanophenyl)-2,6-dimethyl-1,4-dihydropyridine-3,5-dicarboxylate]
HT29
  GI% HT29: – (Only GI% ≥ 10 are shown)
OVCAR-5
  GI% OVCAR-5: – (Only GI% ≥ 10 are shown)
HCT-116
  GI% HCT-116: 18%
SF-295
  GI% SF-295: 18%
SF-268
  GI% SF-268: – (Only GI% ≥ 10 are shown)
MALME-3M
  GI% MALME-3M: – (Only GI% ≥ 10 are shown)
SN12C
  GI% SN12C: – (Only GI% ≥ 10 are shown)
PC-3
  GI% PC-3: 22%
Pseudomonas aeruginosa; Pseudomonas aeruginosa, 24 h, read-out: Diameter of inhibition zone, P. aeruginosa
  zone of inhibition at 1000 µg/mL: 13 mm
Pseudomonas aeruginosa; relative to ciprofloxacin
  % activity index, P. aeruginosa: 56.5%
CCRF-CEM
  GI% CCRF-CEM: – (Only GI% ≥ 10 are shown)
SNB-19
  GI% SNB-19: – (Only GI% ≥ 10 are shown)
NCI-H522
  GI% NCI-H522: 15%
SR
  GI% SR: 29%
OVCAR-3
  GI% OVCAR-3: – (Only GI% ≥ 10 are shown)
SK-MEL-2
  GI% SK-MEL-2: – (Only GI% ≥ 10 are shown)
EKVX
  GI% EKVX: 12%
HS578T
  GI% HS578T: 14%
COLO 205
  GI% COLO 205: – (Only GI% ≥ 10 are shown)
KM12
  GI% KM12: – (Only GI% ≥ 10 are shown)
NCI-H460
  GI% NCI-H460: – (Only GI% ≥ 10 are shown)
HCC-2998
  GI% HCC-2998: – (Only GI% ≥ 10 are shown)
MDA-MB-231
  GI% MDA-MB-231: – (Only GI% ≥ 10 are shown)
M14
  GI% M14: – (Only GI% ≥ 10 are shown)
Escherichia coli; Escherichia coli, 24 h, read-out: Diameter of inhibition zone, E. coli
  zone of inhibition at 1000 µg/mL: 9 mm
Escherichia coli; relative to ciprofloxacin
  % activity index, E. coli: 34.6%
SK-OV-3
  GI% SK-OV-3: – (Only GI% ≥ 10 are shown)
Staphylococcus aureus; Staphylococcus aureus, 24 h, read-out: Diameter of inhibition zone, S. aureus
  zone of inhibition at 1000 µg/mL: 9 mm
Staphylococcus aureus; relative to ciprofloxacin
  % activity index, S. aureus: 37.5%
NCI-H23
  GI% NCI-H23: – (Only GI% ≥ 10 are shown)
SNB-75
  GI% SNB-75: 22%
NCI/ADR-RES
  GI% NCI/ADR-RES: – (Only GI% ≥ 10 are shown)
LOX IMVI
  GI% LOX IMVI: – (Only GI% ≥ 10 are shown)
SW-620
  GI% SW-620: – (Only GI% ≥ 10 are shown)
MOLT-4
  GI% MOLT-4: 16%
HCT-15
  GI% HCT-15: – (Only GI% ≥ 10 are shown)
K-562
  GI% K-562: 15%
NCI-H226
  GI% NCI-H226: 10%
SK-MEL-5
  GI% SK-MEL-5: – (Only GI% ≥ 10 are shown)
786-0
  GI% 786-0: – (Only GI% ≥ 10 are shown)
IGROV1
  GI% IGROV1: 12%
DU-145
  GI% DU-145: – (Only GI% ≥ 10 are shown)
U251
  GI% U251: – (Only GI% ≥ 10 are shown)
NCI 60 cancer cell lines
  Mean GI%: 5%
Candida albicans; Candida albicans, 24 h, read-out: Diameter of inhibition zone, C. albicans
  zone of inhibition at 1000 µg/mL: 7 mm
Candida albicans; relative to clotrimazole
  % activity index, C. albicans: 25.9%
SK-MEL-28
  GI% SK-MEL-28: – (Only GI% ≥ 10 are shown)
Bacillus subtilis
  % activity index, B. subtilis: – (Values below 25 are of limited value and not shown as they refer either to inactive or non-diffusing compounds)
TK-10
  GI% TK-10: – (Only GI% ≥ 10 are shown)
MDA-MB-468
  GI% MDA-MB-468: – (Only GI% ≥ 10 are shown)
MDA-MB-435
  GI% MDA-MB-435: – (Only GI% ≥ 10 are shown)
RPMI-8226
  GI% RPMI-8226: – (Only GI% ≥ 10 are shown)
HOP-62
  GI% HOP-62: – (Only GI% ≥ 10 are shown)
HOP-92
  GI% HOP-92: 17%
T-47D
  GI% T-47D: 25%
